Data: the supplement of paper PMC10307832

How the values were obtained:
Experiment in all cases: relative viability (nuclei count vs DMSO), 5 days (fraction); higher = more cells survive
GSK126 + Linsitinib = compound: CC[C@H](C)N1C=C(C2=C(C=C(C=C21)C3=CN=C(C=C3)N4CCNCC4)C(=O)NCC5=C(C=C(NC5=O)C)C)C [GSK126] + C[C@]1(O)C[C@@H](c2nc(-c3ccc4ccc(-c5ccccc5)nc4c3)c3c(N)nccn32)C1 [Linsitinib] (partner 1 µM)
In short: (§1)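 Lung cancer cell lines in 1536-well plates were dosed by pin tool the day after seeding, either with one drug alone or with a fixed anchor-drug dose plus five library-drug doses (not always all listed) in √10 steps. After 5 days, cells were fixed and their nuclei stained in one step (final 0.05% Triton X-100, 1% formaldehyde, 1 ug/ml Hoechst), then counted on 4× images. Relative viability is the nuclei count in treated wells divided by that in vehicle wells. Values are medians of duplicate plates.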

MLN4924 + OSI-027 = compound: NS(=O)(=O)OC[C@@H]1C[C@@H](n2ccc3c(N[C@H]4CCc5ccccc54)ncnc32)C[C@@H]1O [MLN4924] + COc1cccc2cc(-c3nc([C@H]4CC[C@H](C(=O)O)CC4)n4ncnc(N)c34)[nH]c12 [OSI-027] (partner 0.5 µM)
In short: as §1

MLN4924 + Luminespib = compound: NS(=O)(=O)OC[C@@H]1C[C@@H](n2ccc3c(N[C@H]4CCc5ccccc54)ncnc32)C[C@@H]1O [MLN4924] + CCNC(=O)c1noc(-c2cc(C(C)C)c(O)cc2O)c1-c1ccc(CN2CCOCC2)cc1 [Luminespib] (partner 0.01 µM)
In short: as §1

MLN4924 + Pemetrexed = compound: NS(=O)(=O)OC[C@@H]1C[C@@H](n2ccc3c(N[C@H]4CCc5ccccc54)ncnc32)C[C@@H]1O [MLN4924] + Nc1nc2[nH]cc(CCc3ccc(C(=O)N[C@@H](CCC(=O)O)C(=O)O)cc3)c2c(=O)[nH]1 [Pemetrexed] (partner 0.2 µM)
In short: as §1

| Cell Line | relative viability (GSK126 + Linsitinib; first compound 0.08 µM) | relative viability (GSK126 + Linsitinib; first compound 0.253 µM) | relative viability (GSK126 + Linsitinib; first compound 0.8 µM) | relative viability (GSK126 + Linsitinib; first compound 2.53 µM) | relative viability (GSK126 + Linsitinib; first compound 8 µM) | relative viability (MLN4924 + OSI-027; first compound 0.04 µM) | relative viability (MLN4924 + OSI-027; first compound 0.1265 µM) | relative viability (MLN4924 + OSI-027; first compound 0.4 µM) | relative viability (MLN4924 + OSI-027; first compound 1.265 µM) | relative viability (MLN4924 + OSI-027; first compound 4 µM) | relative viability (MLN4924 + Luminespib; first compound 0.04 µM) | relative viability (MLN4924 + Luminespib; first compound 0.1265 µM) | relative viability (MLN4924 + Luminespib; first compound 0.4 µM) | relative viability (MLN4924 + Luminespib; first compound 1.265 µM) | relative viability (MLN4924 + Luminespib; first compound 4 µM) | relative viability (MLN4924 + Pemetrexed; first compound 0.04 µM) | relative viability (MLN4924 + Pemetrexed; first compound 0.1265 µM) | relative viability (MLN4924 + Pemetrexed; first compound 0.4 µM) | relative viability (MLN4924 + Pemetrexed; first compound 1.265 µM) | relative viability (MLN4924 + Pemetrexed; first compound 4 µM) |
| --- | --- | --- | --- | --- | --- | --- | --- | --- | --- | --- | --- | --- | --- | --- | --- | --- | --- | --- | --- | --- |
| LOU-NH91 | 0.975 | 0.884 | 0.924 | 0.977 | 0.973 | 0.754 | 0.857 | 0.609 | 0.411 | 0.385 | 0.334 | 0.3 | 0.281 | 0.246 | 0.303 | 0.367 | 0.366 | 0.393 | 0.385 | 0.343 |
| LU99A | 0.52 | 0.513 | 0.605 | 0.503 | 0.652 | 0.293 | 0.315 | 0.247 | 0.196 | 0.222 | 0.248 | 0.177 | 0.203 | 0.194 | 0.206 | 0.185 | 0.175 | 0.18 | 0.189 | 0.129 |
| NCI-H522 |  |  |  |  |  | 0.666 | 0.64 | 0.398 | 0.317 | 0.465 | 1.08 | 0.709 | 0.851 | 0.433 | 0.467 | 0.876 | 0.859 | 0.612 | 0.323 | 0.383 |
| NCI-H727 | 0.218 | 0.388 | 0.26 | 0.319 | 0.364 | 0.521 | 0.47 | 0.559 | 0.389 | 0.441 | 0.31 | 0.382 | 0.368 | 0.383 | 0.235 |  |  |  |  |  |
| NCI-H1299 | 0.986 | 0.998 | 1 | 0.93 | 0.964 |  |  |  |  |  |  |  |  |  |  |  |  |  |  |  |
| NCI-H1623 |  |  |  |  |  | 0.404 | 0.421 | 0.404 | 0.333 | 0.314 | 0.523 | 0.477 | 0.454 | 0.282 | 0.293 |  |  |  |  |  |
| NCI-H1648 |  |  |  |  |  | 0.246 | 0.235 | 0.21 | 0.205 | 0.228 |  |  |  |  |  | 0.748 | 0.76 | 0.559 | 0.321 | 0.359 |
| NCI-H1650 |  |  |  |  |  | 0.564 | 0.379 | 0.184 | 0.102 | 0.17 | 0.225 | 0.217 | 0.243 | 0.224 | 0.203 | 0.377 | 0.471 | 0.248 | 0.168 | 0.185 |
| NCI-H1703 | 1.25 | 0.708 | 0.852 | 0.82 | 1.5 |  |  |  |  |  |  |  |  |  |  |  |  |  |  |  |
| NCI-H2170 |  |  |  |  |  | 0.694 | 0.601 | 0.27 | 0.178 | 0.255 | 0.631 | 0.443 | 0.269 | 0.172 | 0.147 | 0.275 | 0.311 | 0.271 | 0.129 | 0.135 |
| NCI-H2342 |  |  |  |  |  | 0.586 | 0.779 | 0.532 | 0.594 | 0.547 | 0.773 | 0.757 | 0.682 | 0.723 | 0.464 | 0.796 | 0.787 | 0.815 | 0.714 | 0.559 |
| SW 900 |  |  |  |  |  | 0.266 | 0.412 | 0.217 | 0.0913 | 0.152 | 0.148 | 0.183 | 0.154 | 0.152 | 0.178 |  | 0.397 | 0.261 | 0.194 | 0.168 |
